Laboratory results: patent publication US7622448B2, “Compositions suitable for topical application to the skin” (L'Oreal, priority 2003, dated 2009)

Test system: isolated stratum corneum
Assay: Desquamating effect: counting corneocytes released from isolated stratum corneum
Details: compound 2% by weight in 0.1% Triton X100 PBS buffer pH 7.4, 37° C., 24 hours; for Average number of corneocytes released, 1st skin sample: control 1; for Average number of corneocytes released, 2nd skin sample: control 4
Description: The test consists in counting the corneocytes released after incubation of batches of isolated stratum corneum in the presence of three test compounds, corresponding to compounds F, G and K of Table 1.
Compounds F, G and K were each dissolved to 2% by weight in a 0.1% Triton X100 PBS buffer at pH 7.4.
Two different samples of stratum corneum isolated by trypsin/heat from plastic surgeries were used. SCI discs 4 mm in diameter were cut out using a punch and placed in the bottom of a 96-well dish. 50 μl of buffer containing the test compound were added to each well. Controls without compound were prepared. The tests were repeated three times. The incubation was performed at 37° C. with stirring for 24 hours. 10 μl were then taken up and placed in a Mallassez cell. The freed corneocytes were counted by microscope.

SMILES	Average number of corneocytes released, 1st skin sample	Average number of corneocytes released, 2nd skin sample
CNC(=O)C(Cc1ccccc1)(C(=O)NC)[C@@H]1O[C@H](C)[C@H](O)[C@H](O)[C@H]1O [Compound F, 2-benzyl-N,N′-dimethyl-2-(3,4,5-trihydroxy-6-methyltetrahydropyran-2-yl)malonamide]	5	12
CNC(=O)C(Cc1ccccc1)(C(=O)NC)[C@@H]1OC[C@@H](O)[C@H](O)[C@H]1O [G]	13	12
CNC(=O)C(Cc1ccccc1)(C(=O)NC)[C@@H]1O[C@H](CO)[C@@H](O)[C@H](O)[C@H]1O [K]	7	5
